Source: PMC4193777 (PLoS ONE, 2014)

How the values were obtained:
FPR2 [1] = molecular target: T1, FPR2 (Homo sapiens, UniProt P25090); assay: Neutrophil NADPH-oxidase activity (superoxide release), direct activation of naive cells; format: cell-based
T1 construct: Human peripheral blood neutrophils were isolated from buffy coats from healthy blood donors; endogenous in cells; host or cells: primary human peripheral blood neutrophils from buffy coats of healthy donors
T1 sequence (P25090 1-351): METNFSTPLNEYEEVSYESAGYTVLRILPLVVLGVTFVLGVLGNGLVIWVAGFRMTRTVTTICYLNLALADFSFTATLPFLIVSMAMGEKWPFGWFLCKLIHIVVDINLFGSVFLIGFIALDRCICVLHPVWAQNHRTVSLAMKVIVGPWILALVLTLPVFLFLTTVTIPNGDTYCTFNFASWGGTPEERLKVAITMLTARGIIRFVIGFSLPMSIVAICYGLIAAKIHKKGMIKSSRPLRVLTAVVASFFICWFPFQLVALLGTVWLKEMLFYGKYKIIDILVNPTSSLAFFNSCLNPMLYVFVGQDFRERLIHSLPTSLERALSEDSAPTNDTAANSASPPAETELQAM
Protocol: Human peripheral blood neutrophils were isolated from buffy coats from healthy blood donors using dextran sedimentation and Ficoll-Paque gradient centrifugation as described. The remaining erythrocytes were disrupted by hypotonic lysis, the neutrophils were washed twice, resuspended in KRG, and stored on melting ice until use. This isolation procedure permits cells to be purified with minimal granule mobilization.
The NADPH-oxidase activity was determined using isoluminol-enhanced chemiluminescence (CL), [27]. The CL activity was measured in a six-channel Biolumat LB 9505 (Berthold Co., Wildbad, Germany), using disposable 4-ml polypropylene tubes with a 900 µl reaction mixture containing 10^5 cells, isoluminol (2×10^−5 M) and HRP (2 U). The tubes were equilibrated in the Biolumat for 5 min at 37°C, after which the stimulus (100 µl) was added and the light emission was recorded continuously. Receptor desensitized cells were defined as naïve (non-desensitized) cells that had first been stimulated with a receptor specific agonist and returned to baseline after the resulting release of superoxide before a second stimulation. When reactivation experiments were performed with antagonists, the antagonists were added to the CL reaction mixture 1 min before the second stimulation. For studies with signaling inhibitors, cells were incubated with inhibitors at 37°C for 15 min before agonist addition. Control cells received no treatment but were incubated under the same conditions.
Data analysis was performed using GraphPad Prism 6.0 (Graphpad Software, San Diego, CA, USA).
Representative experiments out of more than five are shown and an arrow indicates the time point for agonist addition. Abscissa: Time of study (min); ordinate: Superoxide production (Mcpm).

FPR2 [2] = assay: Calcium mobilization in undifferentiated HL-60 cells overexpressing FPR2; format: cell-based; conditions: Fura-2; F2Pal10 10 nM
From the text: The procedures used to obtain stable expression of FPR1 and FPR2 in undifferentiated HL-60 cells have been previously described. To prevent possible auto-differentiation due to the accumulation of differentiation factors in the culture medium, cells were passed twice a week before they reached a density of 2×10^6 cells/ml. At each passage, an aliquot of the cell culture was centrifuged, the supernatant was discarded and the cell pellet was resuspended in fresh RPMI 1640 medium containing FCS (10%), PEST (1%), and G418 (1 mg/ml).
Neutrophils or transfected HL-60 cells at a density of 5×10^7 cells/ml in KRG containing 0.1% BSA were loaded with 5 µM FURA 2-AM for 30 minutes in the dark at room temperature. […] Calcium measurements were carried out in a PerkinElmer fluorescence spectrophotometer (LC50), with excitation wavelengths of 340 nm and 380 nm, an emission wavelength of 509 nm, and slit widths of 5 nm and 10 nm, respectively. The transient rise in intracellular calcium is presented as the ratio of fluorescence intensities (340 nm: 380 nm) detected. […] The relative calcium level was expressed as a ratio between Fluo-3 and Fura Red (FL-1/FL-3) fluorescence over time.
Figure 1 The F2Pal10 pepducin specifically activates FPR2. […] The release of superoxide anions was recorded continuously. […] Abscissa, time of study (sec); ordinate, fluorescence (arbitrary units).

Compound: CSCC[C@H](NC(=O)[C@@H](NC(=O)[C@H](CCSC)NC(=O)[C@H](Cc1ccc(O)cc1)NC(=O)[C@H](CCCCN)NC(=O)[C@@H](N)Cc1c[nH]c2ccccc12)C(C)C)C(N)=O [WKYMVM]
- concentration inducing comparable sub-maximum response, pair 1 (FPR2 [1]; first stimulation of naive neutrophils, 10 nM WKYMVM≈100 nM F2Pal10): 10 nM
- concentration inducing comparable sub-maximum response, pair 2 (FPR2 [1]; first stimulation of naive neutrophils, 25 nM WKYMVM≈250 nM F2Pal10): 25 nM
- concentration inducing comparable sub-maximum response, pair 3 (FPR2 [1]; first stimulation of naive neutrophils, 40 nM WKYMVM≈500 nM F2Pal10): 40 nM
- time to peak of radical production (FPR2 [1]; upon stimulation of neutrophils): around one
- intracellular calcium response, FPR2 HL-60 cells (FPR2 [2]): time course of the response was very similar
